“And” between values parts separate entries of the source, which are not always exact repeats. Equal entries are not always repeated. Structures can show the parent of a compound that is named as a salt. Where two headings read alike, the source gives them in different places. Marks after values point to notes of the source that are not given here.
What was measured:
[1] = In vitro degradation assay in 0.01 M PBS buffer solution; format: physicochemical
Protocol: In order to determine the degradation of the compounds in PBS buffer solution, the compounds DSR1˜6 were dissolved in 0.01 M PBS buffer solution, and were sampled every 30 min.

[2] = tested on: K562 human chronic myelogenous leukemia; assay: Subcutaneous tumor model of K562 human chronic myelogenous leukemia; format: in vivo, NOD/SCID mice; conditions: 5 mg/kg; for Relative tumor volume (x ± SE) / Tumor volume (x ± SE): intravenous twice a week
Protocol: K562 cells were subcutaneously inoculated at the back of NOD/SCID mice right side so as to establish a subcutaneous xenograft animal model of human chronic myelogenous leukemia. When the average tumor volume reached 130 mm^3, the experiment mice were divided to different groups, with 8 mice for each group, and the drugs were administrated by intravenous injections twice a week. The effect was evaluated based on relative tumor proliferation ratio (T/C %).
Tumor cells were routinely passaged twice a week. Tumor cells in exponential growth phase were collected, then suspended in a mixture of PBS: matrigel with equal volume ratio and placed on ice for tumor inoculation.
5×10^6 K562 cells were subcutaneously inoculated at the back of experiment mice right side. The mice were monitored at regular intervals for the tumor growth. When tumor grew to average 130 mm^3, the mice were divided to groups randomly according to tumor volume and mouse body weight, and were administrated.
(§1) All of the operations relevant to operation, nursing and treatment in this investigation were conducted according to guidelines approved by Association for Assessment and Accreditation of Laboratory Animal Care (AAALAC). After the incoluation, the incidence of disease and death of animals were observed every day. In the process of daily observation, the effects of tumor growth on normal behavior of animals (such as exercise, feeding, drinking, body weight change, eyes, hair) as well as any other abnormality were attentively monitored. Death and clinical symptom were recorded for animals in each group.
The calculation formula for tumor volume is as follows: tumor volume (mm^3)=0.5×(long diameter of the tumor×short diameter of the tumor^2). RTV and T/C ratios were calculated according to the tumor volumes of the treatment groups and the control group. RTV refers to relative tumor volume. T/C ratio refers to the percentage value of the average tumor volumes between the treatment groups and the control group at a time point after the treatment, which reflects the anti-tumor effects of different treatment groups.
All the experiment results were expressed as the average tumor volume±SE (standard error). For statistical analysis, since the variances of relative tumor volume data were different, one-way analysis of variance (one-way ANOVA) and Dunnett T3 method for multiple comparisons were used to compare significant difference of relative tumor volumes between the groups. p<0.05 indicated the significant difference.

[3] = tested on: PC-3 human prostate cancer; assay: Subcutaneous tumor model of PC-3 human prostate cancer; format: in vivo, Balb/c nude mouse; conditions: 10 mg/kg
Protocol: PC-3 cells were subcutaneously inoculated at the right side on the back of Balb/c nude mouse so as to establish a subcutaneous xenograft animal model of human prostate cancer. When the average tumor volume reached 160 mm^3, the experiment mice were divided to different groups, with 8 mice for each group, and the drugs were administrated by intravenous injections twice a week. The therapeutic effect was evaluated based on relative tumor proliferation ratio (T/C %).
PC-3 cell line was cultured in vitro in Ham's F12K medium with supplement of 10% fetal calf serum and L-glutamine (2 mM) at 37° C. in an atmosphere with 5% CO2 for the tumor cells culture. The tumor cells were routinely passaged twice a week. Tumor cells in exponential growth phase were collected, then were suspended in a mixture of PBS: matrigel with equal volume ratio and were placed on ice for tumor inoculation.
5×10^6 PC-3 cells were subcutaneously inoculated at the right side on the back of experiment mice. The mice were monitored at regular intervals for the tumor growth. When tumor grew to average 160 mm^3, the mice were divided to groups randomly according to the tumor volume and the mouse body weight, and were administrated.
as §1
The calculation formula for tumor volume is as follows: tumor volume (mm^3)=0.5×(long diameter of the tumor×short diameter of the tumor^2). RTV and T/C ratios were calculated according to the tumor volumes of the treatment groups and the control group. RTV refers to relative tumor volume. T/C ratio refers to the percentage value of the relative tumor volumes of the treatment groups and the control group at a time point after the treatment, which reflects the anti-tumor effects of different treatment groups. At the end of the experiment, the pictures of the tumors were recorded according to the following two methods: 1. after euthanatized by CO2, the animals in each group were placed with tumor-bearing side up, and the pictures were taken and recorded respectively for each group; 2. after the tumor was removed, the tumor weight was weighed first. T/C (percentage value of the tumor weight between the treatment group and the control group) was calculated, and then the tumors from each group were placed in order. The pictures of the tumors were taken and recorded.
All the experiment results were expressed as average tumor volume±SE (standard error). For statistical analysis, one-way analysis of variance (one-way ANOVA) and LSD multiple comparisons method were used for the relative tumor volume data, comparing the significant difference of the relative tumor volumes between the groups. p<0.05 indicates the significant difference.

[4] = tested on: human colon cancer HCT-116; assay: Xenografted tumor of human colon cancer HCT-116 in nude mice; format: in vivo, BALB/cA nude mice; conditions: iv
Protocol: The diameter of subcutaneously xenografted tumor of the nude mice was measured by the caliper.

human colon cancer HT-29 = assay: Xenografted tumor of human colon cancer HT-29 in nude mice; format: in vivo, BALB/cA nude mice; conditions: iv
human lung cancer A549 = assay: Xenografted tumor of human lung cancer A549 in nude mice; format: in vivo, BALB/cA nude mice; conditions: iv
[5] = tested on: human ovarian cancer SKOV-3; assay: Xenografted tumor of human ovarian cancer SKOV-3 in nude mice; format: in vivo, BALB/cA nude mice; conditions: iv; for number of animals with vanished tumor: d28, 6 mice per group
[6] = tested on: human colon cancer SW-620; assay: Xenografted tumor of human colon cancer SW-620 in nude mice; conditions: 45 mg/kg, qw × 3w, iv
[7] = tested on: human liver cancer plc/prf/5; conditions: 10 mg/kg (based on rapamycin), i.v., Q2W × 2W
[8] = 14th day after the grouping, compared with the solvent control group
[9] = 22nd day after grouping, compared with the solvent control group
[10] = intravenous twice a week, 22nd day after grouping
[11] = intravenous twice a week, 25th day after grouping
[12] = day 24 after the inoculation (grouping)

## conjugate of methoxy PEG glutamic acid dipeptide valine (20K)-dasatinib [DSR-4]
[1]; at 240 min
  degradation: 20%
[2]; [8]
  T/C (relative tumor proliferation ratio): 1.6%
[2]; 21st day after grouping, compared with the dasatinib group
  T/C (relative tumor proliferation ratio): 45%
[2]; 14th day after the grouping
  Relative tumor volume (x ± SE): 29.1 ± 4.8
  Tumor volume (x ± SE): 39.2 mm^3 and 39.2 ± 6 mm^3
[2]; 21st day after grouping
  Relative tumor volume (x ± SE): 130 ± 28
  Tumor volume (x ± SE): 176 mm^3 and 176 ± 59 mm^3
[3]; [9]
  T/C (relative tumor proliferation ratio): 47%
[3]; 25th day after grouping, compared with the dasatinib group
  T/C (relative tumor proliferation ratio): 61%
[3]; [10]
  Relative tumor volume (x ± SE): 745.9 ± 54.4
  Tumor volume (x ± SE): 1187 mm^3 and 1187 ± 67 mm^3
[3]; [11]
  Relative tumor volume (x ± SE): 751.9 ± 78.9

## conjugate of methoxy PEG dipeptide acid of glutamic acid (20K)-dasatinib [DSR-1]
[1]; at 60 min
  degradation: 60%

## conjugate of methoxy PEG dipeptide of glutamic acid alanine (20K)-dasatinib [DSR-3]
[1]; at 150 min
  degradation: 50%

## conjugate of methoxy PEG dipeptide of glutamic acid and glycine (number-average molecular weight of 20,000)-irinotecan [YNR-1]
[4]; 45 mg/kg, qw × 3w
  RTV (mean ± SD): 1.78 ± 0.23**^,##
  T/C: 27.60%
  TV (mean ± SD) d0: 132 ± 30 mm^3
  TV (mean ± SD) d28: 234 ± 54 mm^3
Human colon cancer HT-29; 45 mg/kg, qw × 3w
  RTV (mean ± SD): 5.71 ± 1.21
  T/C: 41.08%
  TV (mean ± SD) d0: 115 ± 25 mm^3
Human colon cancer HT-29; 45 mg/kg, qw × 3w, d28
  TV (mean ± SD) d28: 642 ± 105 mm^3
Human lung cancer A549; 45 mg/kg, qw × 3w
  RTV (mean ± SD): 2.97 ± 1.04*^,#
  T/C: 20.62%
  TV (mean ± SD) d0: 105 ± 21 mm^3
  TV (mean ± SD) d28: 320 ± 154 mm^3
[5]; 45 mg/kg, qw × 3w
  RTV (mean ± SD): 0.07 ± 0.01*^,#
  T/C: 0.53%
  TV (mean ± SD) d0: 135 ± 35 mm^3
  TV (mean ± SD) d28: 1.27 ± 1.98 mm^3
  number of animals with vanished tumor: 4
[6]
  RTV (mean ± SD): 0.003 ± 0.002**^,#
  T/C: 0.02%
[6]; d0
  TV (mean ± SD) d0: 130 ± 43 mm^3
[6]; d28
  TV (mean ± SD) d28: 0.37 ± 0.29 mm^3
[6]; d28, 6 mice per group
  number of animals with vanished tumor: 2

## conjugate of methoxy PEG (20K) dipeptide of glutamic acid glycine-rapamycin [LPR-2]
[7]
  Delayed days of tumor growth (to 1000 mm^3): >7 days
[7]; [12]
  Tumor volume (average ± standard error): 353 ± 54 mm^3
[7]; day 27 after the inoculation
  Tumor volume (average ± standard error): 404 ± 89 mm^3
[7]; day 31 after the inoculation
  Tumor volume (average ± standard error): 391 ± 72 mm^3
[7]; day 34 after the inoculation
  Tumor volume (average ± standard error): 456 ± 77 mm^3
[7]; day 38 after the inoculation
  Tumor volume (average ± standard error): 536 ± 77 mm^3

## CCc1c2c(nc3ccc(OC(=O)N4CCC(N5CCCCC5)CC4)cc13)-c1cc3c(c(=O)n1C2)COC(=O)[C@]3(O)CC [CPT-11, irinotecan hydrochloride]
[4]; 15 mg/kg, q3w × 3w
  Body weight, End: 16.6 g
  RTV (mean ± SD): 2.57 ± 0.66
  T/C: 39.84%
  TV (mean ± SD) d0: 129 ± 26 mm^3
  TV (mean ± SD) d28: 322 ± 37 mm^3
[4]; 45 mg/kg, qw × 3w
  Body weight, End: 15.1 g
  RTV (mean ± SD): 4.10 ± 0.73
  T/C: 63.56%
  TV (mean ± SD) d0: 126 ± 25 mm^3
  TV (mean ± SD) d28: 512 ± 99 mm^3
Human colon cancer HT-29; 15 mg/kg, q3w × 3w
  Body weight, Beginning: 18.2 g
  Body weight, End: 16.0 g
  RTV (mean ± SD): 3.79 ± 1.21*^,
  T/C: 27.27%
  TV (mean ± SD) d0: 121 ± 14 mm^3
Human colon cancer HT-29; 45 mg/kg, qw × 3w
  Body weight, Beginning: 18.6 g
  Body weight, End: 16.2 g
  RTV (mean ± SD): 8.69 ± 3.43
  T/C: 62.52%
  TV (mean ± SD) d0: 116 ± 13 mm^3
Human lung cancer A549; 15 mg/kg, q3w × 3w
  Body weight, Beginning: 18.1 g
  RTV (mean ± SD): 7.67 ± 2.88**^,
  T/C: 53.26%
  TV (mean ± SD) d0: 112 ± 21 mm^3
  TV (mean ± SD) d28: 831 ± 305 mm^3
Human lung cancer A549; 45 mg/kg, qw × 3w
  RTV (mean ± SD): 9.87 ± 4.87
  T/C: 68.54%
  TV (mean ± SD) d0: 110 ± 15 mm^3
[5]; 15 mg/kg, q3w × 3w
  Body weight, Beginning: 18.9 g
  Body weight, End: 18.0 g
  RTV (mean ± SD): 7.39 ± 5.22**^,
  T/C: 55.69%
  TV (mean ± SD) d0: 137 ± 33 mm^3
  TV (mean ± SD) d28: 924 ± 443 mm^3
  number of animals with vanished tumor: 0
[5]; 45 mg/kg, qw × 3w
  Body weight, Beginning: 19.7 g
  RTV (mean ± SD): 12.80 ± 3.91
  T/C: 96.46%
  TV (mean ± SD) d0: 136 ± 44 mm^3
  TV (mean ± SD) d28: 1753 ± 878 mm^3
  number of animals with vanished tumor: 0

## Cc1nc(Nc2ncc(C(=O)Nc3c(C)cccc3Cl)s2)cc(N2CCN(CCO)CC2)n1 [dasatinib]
[2]; [8]
  T/C (relative tumor proliferation ratio): 12.4%
[2]; 14th day after the grouping
  Relative tumor volume (x ± SE): 226.9 ± 30.0
  Tumor volume (x ± SE): 311 mm^3 and 311 ± 55 mm^3
[2]; 21st day after grouping
  Relative tumor volume (x ± SE): 289.1 ± 46.9
  Tumor volume (x ± SE): 391 mm^3 and 391 ± 79 mm^3
[3]; [9]
  T/C (relative tumor proliferation ratio): 73%
[3]; [10]
  Relative tumor volume (x ± SE): 1148.9 ± 112.7
[3]; [11]
  Relative tumor volume (x ± SE): 1235.3 ± 119.6

## conjugate of Y shape PEG dipeptide of glutamic acid and glycine (number-average molecular weight of 40,000)-rapamycin [LPR-3]
[7]
  Delayed days of tumor growth (to 1000 mm^3): >7 days
[7]; compared with the solvent group, day 38 after the inoculation
  Tumor proliferation rates T/C: 47%
[7]; [12]
  Tumor volume (average ± standard error): 358 ± 62 mm^3
[7]; day 27 after the inoculation
  Tumor volume (average ± standard error): 455 ± 85 mm^3
[7]; day 31 after the inoculation
  Tumor volume (average ± standard error): 569 ± 100 mm^3
[7]; day 34 after the inoculation
  Tumor volume (average ± standard error): 754 ± 151 mm^3
[7]; day 38 after the inoculation
  Tumor volume (average ± standard error): 848 ± 178 mm^3

## conjugate of methoxy PEG dipeptide of glutamic acid and glycine (20K)-dasatinib [DSR-2]
[1]; at 90 min
  degradation: 50%
